Test results published in patent US20250059160A1, “Chemical Activators of Nicotinamide Mononucleotide adenylyltransferase 2 (NMNAT2) and Uses Thereof” (Tsinghua University, priority 2018, published 2025).
Entries after “also recorded” stand apart in the source; their conditions may differ.

Experiments:
[1] = test system: CIPN mice model; assay: paclitaxel-induced CIPN mouse model, Von Frey test; type: in vivo
Excerpt: The procedure of CIPN mouse model and treatment regimen is shown in the upper panel.
Chemotherapy-induced peripheral neuropathy (CIPN) arises from the peripheral nerve damage by anticancer pharmacotherapy, leading to a progressive, enduring, and debilitating condition featuring pain, numbness, tingling and sensitivity to cold in the hands and feet. CIPN afflicts between 30% and 40% of patients undergoing chemotherapy, but currently no effective treatment for CIPN exists (del Pino BM, 2010). Chemotherapy drugs associated with CIPN include the antimitotic drugs such as paclitaxel and vinblastine, which are widely used for the treatment of a variety of cancer. To evaluate the neuroprotective efficacy of the compounds in vivo, we developed an aggressive CIPN mice model as presented in FIG. 5.
Mice were daily administrated with compound 20, at doses of 6, 2, 0.6 and 0 mg/kg (5 animals per group, i.p.) from one week prior to the initiation of paclitaxel (D-7) to 8th day after the initiation of paclitaxel (D8). After one-week pre-dosing with compound 20, mice were injected intraperitoneally with paclitaxel at a dose of 2 mg/kg on 4 alternate days (Day 0, 2, 4, 6). The Von Frey test was conducted the other day after the last administration of paclitaxel. […] Mice were daily administrated with compound NSC, at doses of 1, 3, and 10 mg/kg (5-6 animals per group, i.p.) from one week prior to the initiation of taxol (paclitaxel) (D-7) to 8th day after the initiation of paclitaxel (D8). After one-week pre-dosing with compound NSC, mice were injected intraperitoneally with paclitaxel at a dose of 2 mg/kg on 4 alternate days (Day 0, 2, 4, 6). The Von Frey test was conducted the other day after the last administration of taxol (paclitaxel).

[2] = molecular target: NMNAT3 (Homo sapiens, UniProt Q96T66); assay: doubly coupled enzyme assay prepared for NMNAT3; type: biochemical; details: 3 μM compound, FIG. 3, NMNAT isoform comparison
Chain of NMNAT3 (Q96T66 whole entry, species assumed, canonical isoform): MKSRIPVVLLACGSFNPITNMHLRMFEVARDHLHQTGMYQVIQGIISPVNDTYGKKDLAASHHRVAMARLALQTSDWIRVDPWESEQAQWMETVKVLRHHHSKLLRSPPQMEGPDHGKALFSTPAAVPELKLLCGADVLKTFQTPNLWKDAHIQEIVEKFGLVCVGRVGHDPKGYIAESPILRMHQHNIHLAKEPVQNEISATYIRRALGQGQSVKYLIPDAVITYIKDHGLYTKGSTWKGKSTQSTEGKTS
Experimental: (§1) A doubly coupled enzyme assay was prepared for NMNAT1, NMNAT2 and NMNAT3. NMNAT activation is normalized, where the reaction rate of NMNAT in the presence of 3 μM of compound NSC was compared to that of a DMSO-treated control.
(§2) These compounds might represent direct activators of the NMNAT2 enzyme.

[3] = molecular target: NMNAT2 (Homo sapiens, UniProt Q9BZQ4); assay: doubly coupled NMNAT2 enzyme assay (NMNAT2 + ADH, NADH fluorescence); type: biochemical
Chain of NMNAT2 (Q9BZQ4 whole entry, species assumed): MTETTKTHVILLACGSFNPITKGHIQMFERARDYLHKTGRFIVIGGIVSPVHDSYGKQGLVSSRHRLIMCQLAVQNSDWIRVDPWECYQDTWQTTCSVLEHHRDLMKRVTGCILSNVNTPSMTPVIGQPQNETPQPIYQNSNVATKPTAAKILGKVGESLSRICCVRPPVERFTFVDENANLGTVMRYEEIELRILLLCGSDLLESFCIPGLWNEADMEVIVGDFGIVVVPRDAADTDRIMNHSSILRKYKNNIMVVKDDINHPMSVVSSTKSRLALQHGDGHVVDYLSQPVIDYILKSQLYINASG
Experimental: In a doubly coupled enzyme assay, the first enzyme NMNAT2 (it converted NMN to NAD) and the second enzyme ADH (it converted NAD to NADH) as well as compound NSC at a concentration of 3 μM were used, and the conversion of NMN to NADH was monitored by measuring fluorescence intensity of NADH at an excitation of 340 nm and an emission of 445 nm (Y axis) as a function of time (X axis).
A high-throughput screen was performed in search of compounds capable of activating NMNAT2, an important NAD biosynthetic enzyme. Roughly 50,000 synthetic organic chemicals were tested in a doubly coupled NMNAT assay that contains two enzymes, NMNAT2 and alcohol dehydrogenase (ADH). […] The conversion of NMN to NADH was monitored by measuring fluorescence intensity of NADH at an excitation of 340 nm and an emission of 445 nm (Y axis) as a function of time (X axis). Fluorescence at ex340 nm/em445 nm (F340/445) was measured continuously for 30 minutes at room temperature to establish the reaction velocity. […] The reaction rate is expressed as the concentration of NADH (equivalent to NAD) formed per minute. Since the concentration of NADH is reflected by F340/445, the reaction rate is thus the slope of the linear kinetic curve of F340/445 versus time at time t, written as F340 445/min, which is calculated in the equation: reaction rate=ΔF340/445/Δt. […]

[4] = test system: alcohol dehydrogenase (ADH); assay: ADH enzyme assay with NAD as substrate (counter-screen); type: biochemical; details: 5 μM compound, 50 μM NAD
Experimental: In a secondary screen, the compounds with the relative reaction rate higher than 150% are cherry-picked and retested in triplicates in the doubly coupled NMNAT2 assay. […] Briefly, the ADH enzyme reaction was prepared to contain 50 mM Tris-Cl (pH 8.0), 12 mM MgCl2, 1.5% ethanol, 10 mM semicarbizide, 0.2% bovine serum albumin (BSA), and 0.04 units ADH. 40 µl of the mixture was dispensed into 384-well black polypropylene plates, and individual compounds were added to each well at a final concentration of 5 μM. The reaction was initiated by addition of 50 μM NAD followed by gentle mixing in the plate. The conversion of NAD to NADH was monitored by measuring fluorescence intensity of NADH at an excitation of 340 nm and an emission of 445 nm (Y axis) as a function of time (X axis). Fluorescence at ex340 nm/em445 nm was measured continuously for 30 minutes to establish the kinetic reaction curve of F340/445 versus time. The reaction rates were calculated as described in the NMNAT2 assay. The relative ADH enzyme reaction rate in the presence of each compound is normalized by DMSO-treated control.

[5] = molecular target: NMNAT1 (Homo sapiens, UniProt Q9HAN9); assay: doubly coupled enzyme assay prepared for NMNAT1; type: biochemical; details: 3 μM compound, FIG. 3, NMNAT isoform comparison
Chain of NMNAT1 (Q9HAN9 whole entry, species assumed, canonical isoform): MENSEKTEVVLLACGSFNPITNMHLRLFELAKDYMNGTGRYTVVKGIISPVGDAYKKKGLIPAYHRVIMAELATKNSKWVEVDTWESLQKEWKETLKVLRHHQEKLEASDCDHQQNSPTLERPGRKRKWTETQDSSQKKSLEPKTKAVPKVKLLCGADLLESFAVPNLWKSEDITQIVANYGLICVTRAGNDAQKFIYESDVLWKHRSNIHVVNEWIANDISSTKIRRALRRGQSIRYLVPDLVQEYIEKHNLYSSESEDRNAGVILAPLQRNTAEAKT
Experimental: as §1, §2

[6] = test system: SARM1-expressing cells; assay: protection from SARM1-mediated toxicity, cell viability by CellTiter-Glo; type: cell-based; details: 0.1, 0.3, 1, 3, 10, and 30 μM, 24 hours, FIG. 4
Experimental: SARM1-expressing cells were treated with compound NSC at 0.1, 0.3, 1, 3, 10, and 30 μM. After 24 hours, the cell images in bright field were taken under the microscope before cell viability was determined by measuring ATP levels using CellTiter-Glo assay kit.
In the first assay, the compounds were added at 1, 3, 10, 30 and 100 μM in the reaction mixture. The reaction rate of NMNAT2 enzyme was calculated as the slope of the F340/445 versus time curve, and was normalized by DMSO-treated control. The dose response curves were plotted to assess the effects of individual compounds on NMNAT2 enzymatic activity. […] After 24 hours, the cell survival was measured by Cell-titer Glo kit, and normalized by DMSO-treated control. […]
Compounds NSC and 1-40 were evaluated in two independent assays: an in vitro enzyme assay measuring activation of NMNAT2 and a cell-based assay measuring the degree of protection from SARM1 expression in cells. […] The conversion of NMN to NADH was monitored by measuring fluorescence intensity of NADH at an excitation of 340 nm and an emission of 445 nm (Y axis) as a function of time (X axis). Fluorescence at ex340 nm/em445 nm (F340/445) was measured continuously for 30 minutes at room temperature to establish the reaction velocity. The reaction rate of NMNAT2 enzyme was expressed as the concentration of NADH (equivalent to NAD) formed per minute. […]

Structure (SMILES) | mice paw pressure threshold (Von Frey test) ([1]; 6 mg/kg/day i.p., D-7 to D8, paclitaxel 2 mg/kg on days 0, 2, 4, 6, FIG. 5) | NMNAT3 activation (reaction rate compared to DMSO-treated control) [2] | NMNAT2 activation (reaction rate compared to DMSO-treated control) ([3]; 3 μM compound, FIG. 3, NMNAT isoform comparison) | level of activation in the doubly coupled NMNAT2 assay ([3]; high-throughput screen hits, FIG. 2 with compound at 3 μM) | activity in the ADH assay (relative ADH enzyme reaction rate) [4] | NMNAT1 activation (reaction rate compared to DMSO-treated control) [5] | protection of cultured cells against SARM1-mediated toxicity (cell viability, ATP levels) [6] | mice paw pressure threshold (Von Frey test) ([1]; 3 mg/kg/day i.p., D-7 to D8, paclitaxel 2 mg/kg on days 0, 2, 4, 6, FIG. 6) | mice paw pressure threshold (Von Frey test) ([1]; 10 mg/kg/day i.p., D-7 to D8, paclitaxel 2 mg/kg on days 0, 2, 4, 6, FIG. 6) | mice paw pressure threshold (Von Frey test) ([1]; FIG. 6 legend, dose not stated there)
C/C(=N\NC(=S)NN)c1ccccn1 [Compound 20, (E)-N′-(1-(pyridin-2-yl)ethylidene)hydrazinecarbothiohydrazide] | significantly increased the mice paw pressure threshold | – | – | – | – | – | – | – | – | –
C/C(=N\NC(=S)N1CCC1)c1ccccn1 [Compound NSC, (E)-N′-(1-(pyridin-2-yl)ethylidene)azetidine-1-carbothiohydrazide] | – | not NMNAT3 | activated NMNAT2 strongly; also recorded: activates NMNAT2 | most robust level of activation; also recorded: NMNAT2 activation | inactive in the ADH assay | NMNAT1 weakly; also recorded: activates NMNAT2 and NMNAT1 | protects cultured cells against SARM1-mediated toxicity | significantly increased the mice paw pressure threshold | significantly increased the mice paw pressure threshold | significantly increased the mice paw pressure threshold
